# Measurements from patent US20250145948A1, “METHOD FOR ASSESSING DIFFERENTIATION POTENTIAL OF CELLS IN CULTURE BROTH IN DIFFERENTIATION OF PLURIPOTENT STEM CELLS INTO NEURAL CELLS OF MIDBRAIN FLOOR PLATE REGION” (SUMITOMO PHARMA CO., LTD., priority 2022, published 2025).
# Key:
# iPS cell line (1231A3) [1] = assay: Ratio of Corin-positive cells after induction of differentiation into neural cells of the midbrain floor plate region (cell sorter); type: cell-based, human; conditions: cell group A1: pretreatment with SAG 300 nM from Day -1 to Day 0; culture day 12 for the induction of differentiation
# Description: (§1) An iPS cell line (formal name: 1231A3) as a line for research was used and cultured in a medium having composition given below. The medium was supplemented (with pretreatment) with SAG (N-Methyl-N′-(3-pyridinylbenzyl)-N′-(3-chlorobenzo[b]thiophene-2-carbonyl)-1,4-diaminocyclohexane, final concentration: 300 nM) for 1 day from 1 day before the start of differentiation culture (Day −1) to the start day of differentiation (Day 0) to establish a cell group having high induction efficiency (cell group A1). An untreated cell group (cell group A2) was also established for comparison by cell culture under the same conditions as in the cell group A1 except that the medium was not supplemented with SAG.
# As for the medium in the culture experiment A, AK03N basal medium manufactured by Ajinomoto Co., Inc. was used before the start of differentiation, and GMEM containing 8% KSR was used as a basal medium at and after the start of differentiation (Day 0).
# (§2) The pluripotent stem cells in each of six types of cell groups provided in the culture experiments A, B, and C were induced to differentiate into neural cells of the midbrain floor plate region in accordance with a predetermined protocol. […] The ratio of Corin-positive cells in each cell group was measured using a cell sorter (BD FACSJazz, BD Accuri or Furukawa PERFLOW Sort) on 12 days from the start of differentiation. […]
# iPS cell line (1231A3) [2] = assay: Concentration analysis of NT-3 in culture supernatant (Bioplex); type: cell-based, human; conditions: cell group A1 (SAG 300 nM pretreatment)
# Description: as §1, §2
smiles,measurement,setting,value
"CNC1CCC(N(Cc2cccc(-c3ccncc3)c2)C(=O)c2sc3ccccc3c2Cl)CC1 (stereo not drawn) [SAG, N-Methyl-N′-(3-pyridinylbenzyl)-N′-(3-chlorobenzo[b]thiophene-2-carbonyl)-1,4-diaminocyclohexane]",ratio of Corin-positive cells,iPS cell line (1231A3) [1],90%
same,NT-3 in culture supernatant,iPS cell line (1231A3) [2]; sample collected 3 days after the start of differentiation,specifically increased
same,NT-3 in culture supernatant,iPS cell line (1231A3) [2]; samples collected 1 day and 5 days after the start of differentiation,not detected
